How the values were obtained:
α-synuclein fibrils [1] = biological target: T1, α-synuclein fibrils (Homo sapiens, UniProt P37840); assay: ThT saturation binding to α-synuclein fibrils; conditions: Tris buffer 30 mM pH 7.4
α-synuclein fibrils [2] = biological target: T1, α-synuclein fibrils

SMILES	Bmax of ThT binding to α-synuclein fibrils (α-synuclein fibrils [1]) [afu]	Competition for ThT in the assay (specificity control) (α-synuclein fibrils [2])
Cc1ccc2c(c1)sc(-c1ccc(N(C)C)cc1)[n+]2C [ThT, Thioflavin T]	5672	–
CCc1cc(Cl)c(OC)c(C(=O)NC[C@@H]2CCCN2CC)c1O.Cl [eticlopride hydrochloride]	–	no significant competition
